Results taken from publication doi:10.1101/2023.04.05.535794v1 (biorxiv, 2023).

Columns and labels:
Experiment in all cases: fluorogenic peptide-amc hydrolysis, dose-response over […] h
Assay type in all cases: biochemical
[1] = target: T1, Tv20S β5 (T. vaginalis 20S proteasome, β5 site) (Trichomonas vaginalis, UniProt A2DD57)
T1 sequence (A2DD57 54-256): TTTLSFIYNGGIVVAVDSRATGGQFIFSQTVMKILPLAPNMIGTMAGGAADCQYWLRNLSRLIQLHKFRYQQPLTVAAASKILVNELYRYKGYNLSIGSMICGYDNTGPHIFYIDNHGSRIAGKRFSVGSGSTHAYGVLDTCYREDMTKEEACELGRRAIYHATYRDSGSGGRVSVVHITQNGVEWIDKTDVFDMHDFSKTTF

[2] = target: T2, Tv20S β2 (T. vaginalis 20S proteasome, β2 site) (Trichomonas vaginalis, UniProt A2F2T6)
T2 sequence (A2F2T6 32-275): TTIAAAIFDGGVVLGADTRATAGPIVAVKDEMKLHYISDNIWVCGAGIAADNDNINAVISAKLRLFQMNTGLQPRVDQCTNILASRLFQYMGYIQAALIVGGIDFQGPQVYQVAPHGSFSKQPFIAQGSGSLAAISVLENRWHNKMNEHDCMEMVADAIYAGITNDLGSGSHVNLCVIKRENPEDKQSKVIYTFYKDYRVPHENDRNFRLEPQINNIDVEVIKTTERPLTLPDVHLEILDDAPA

[3] = target: T3, Tv20S β1 (T. vaginalis 20S proteasome, β1 site) (Trichomonas vaginalis, UniProt A2E7Z2)
T3 sequence (A2E7Z2 13-216): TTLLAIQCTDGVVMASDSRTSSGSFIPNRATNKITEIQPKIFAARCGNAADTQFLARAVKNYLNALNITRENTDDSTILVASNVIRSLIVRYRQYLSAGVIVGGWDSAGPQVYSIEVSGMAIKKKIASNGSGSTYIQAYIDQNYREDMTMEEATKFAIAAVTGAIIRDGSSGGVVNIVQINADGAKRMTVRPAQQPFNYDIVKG

SMILES	IC50 [1]	IC50 [2]	IC50 [3]
CC(C)C[C@H](NC(=O)[C@H](CCc1ccccc1)NC(=O)CN1CCOCC1)C(=O)N[C@@H](Cc1ccccc1)C(=O)N[C@@H](CC(C)C)C(=O)[C@@]1(C)CO1 [carfilzomib]	78.4 ± 17.3 nM	372 ± 92.1 nM	
CC(C)C[C@H](NC(=O)CNC(=O)c1cc(Cl)ccc1Cl)B(O)O [ixazomib]	34.1 ± 5.4 nM		270 ± 97.1 nM
